{
  "source": "patent US11964938B2",
  "about": "“3-phenyl-4-hexynoic acid derivatives as GPR40 agonists” (CELON PHARMA S.A., priority 2018, dated 2024)",
  "key": {"[1]": {"target": "T1, human GPR40 receptor (Homo sapiens, UniProt O14842)", "T1 construct": "host or cells: CHO-K1 (co-expressing aequorin)", "T1 sequence (O14842 whole entry)": "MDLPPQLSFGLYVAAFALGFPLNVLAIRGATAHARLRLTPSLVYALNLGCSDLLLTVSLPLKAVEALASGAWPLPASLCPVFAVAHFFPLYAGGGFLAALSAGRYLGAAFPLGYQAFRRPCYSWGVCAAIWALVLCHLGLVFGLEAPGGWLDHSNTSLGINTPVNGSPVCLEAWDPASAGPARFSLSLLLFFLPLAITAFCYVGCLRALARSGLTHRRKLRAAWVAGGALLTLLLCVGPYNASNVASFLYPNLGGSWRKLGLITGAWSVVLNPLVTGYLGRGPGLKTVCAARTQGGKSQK", "test": "Analysis of receptor activation - calcium ions concentration measurement (aequorin luminescence)", "assay_type": "cell-based", "conditions": "enhancement or decrease of activity in relation to reference TAK-875, from EC50 values", "from_the_text": "Experiment B1: Analysis of Receptor Activation—Calcium Ions Concentration Measurement.\nAs a result of the measurement, luminescence change in the time curve were obtained, the integration of which allowed to calculate the relative amount of calcium ions released to cytosol. […] Curves plotted from obtained results allowed to determine EC50 values."}, "[2]": {"system": "MIN6 (mouse insulinoma) cells", "test": "Glucose-dependent insulin release in mouse insulinoma cells (MIN6)", "assay_type": "cell-based", "conditions": "multiplicity of insulin efflux increase in relation to control; 10 uM compound, 20 mM glucose, 1 hour", "protocol": "Experiment B2: Glucose-Dependent Insulin Release in Mouse Insulinoma Cells (MIN6).\nMIN6 (mouse insulinoma) cells were seeded on a plate covered with PDL (poly-D-lysine) at 5×10^5/well and cultured for 48 hours. […] Tested compounds, after dilution to the concentration of 10-40 uM in KRBH buffer with the addition of 20 mM glucose, were added to the cells and incubated for 1 hour to induce insulin release. Negative control was KRBH buffer with the addition of 2 mM glucose. Concentration of released insulin was determined using ELISA test (Mercodia).\nTable 4 present MIN6Insulin @10 uM values for representative compounds of the invention. MIN6Insulin @10 uM value is a multiplicity of insulin efflux increase in relation to control experiment, following addition of 10 uM of tested compound."}},
  "data": [
    {"smiles": "Cc1cc(OCCCS(C)(=O)=O)cc(C)c1-c1cccc(COc2ccc3c(c2)OC[C@H]3CC(=O)O)c1", "note": "[Example R1, 2[(3S)-6-({3-[4-(3-methanesulfonylpropoxy)-2,6-dimethylphenyl]-phenyl}methoxy)-2,3-dihydro-1-benzofuran-3-yl]acetic acid, reference compound]", "values": [
      {"measurement": "% PTAK-875", "setting": "[1]", "result": "B (81-120% PTAK-875)"},
      {"measurement": "MIN6Insulin @10 uM", "setting": "[2]", "result": 1.336}
    ]}
  ]
}
